row,SMILES,melting point
1,C[Si](C)(C)C#Cc1cccc(C2=Nc3ccc(C#Cc4ccccc4)cc3NC(=O)C2)c1,169 to 171 °C (dec.)
2,"Cc1ccc(C#Cc2ccc3c(c2)NC(=O)CC(c2cccc(C#N)c2)=N3)cc1 [Example 3, 3-(4-Oxo-7-p-tolylethynyl-4,5-dihydro-3H-benzo[b][1,4]diazepin-2-yl)-benzonitrile]",236 to 239 °C (dec.)
3,"N#Cc1cccc(C2=Nc3ccc(C#Cc4ccccc4Cl)cc3NC(=O)C2)c1 [Example 4, 3-[7-(2-Chloro-phenylethynyl)-4-oxo-4,5-dihydro-3H-benzo[b][1,4]diazepin-2-yl]-benzonitrile]",239 to 240 °C (dec.)
4,"COc1ccc(-c2ccc3c(c2)NC(=O)CC(c2cccc(C#N)c2)=N3)cc1 [Example 6, 3-[7-(4-Methoxy-phenyl)-4-oxo-4,5-dihydro-3H-benzo[b][1,4]diazepin-2-yl]-benzonitrile]",236 to 237 °C (dec.)
5,"N#Cc1cccc(C2=Nc3ccc(-c4ccsc4)cc3NC(=O)C2)c1 [Example 7, 3-(4-Oxo-7-thiophen-3-yl-4,5-dihydro-3H-benzo[b][1,4]diazepin-2-yl)-benzonitrile]",238 to 243 °C (dec.)
6,"N#Cc1cccc(C2=Nc3ccc(-c4ccco4)cc3NC(=O)C2)c1 [Example 8, 3-(7-Furan-2-yl-4-oxo-4,5-dihydro-3H-benzo[b][1,4]diazepin-2-yl)-benzonitrile]",205 to 210 °C (dec.)
7,"CCc1ccc(-c2ccc3c(c2)NC(=O)CC(c2cccc(C#N)c2)=N3)cc1 [Example 9, 3-[7-(4-Ethyl-phenyl)-4-oxo-4,5-dihydro-3H-benzo[b][1,4]diazepin-2-yl]-benzonitrile]",225 to 229 °C (dec.)
8,"N#Cc1cccc(C2=Nc3ccc(-c4ccccc4)cc3NC(=O)C2)c1 [Example 10, 3-(4-Oxo-7-phenyl-4,5-dihydro-3H-benzo[b][1,4]diazepin-2-yl)-benzonitrile]",238 to 240 °C (dec.)
9,"O=C1CC(c2cccc(I)c2)=Nc2ccc(C#Cc3ccccc3)cc2N1 [Example 11, 4-(3-Iodo-phenyl)-8-phenylethynyl-1,3-dihydro-benzo[b][1,4]diazepin-2-one]",227 to 229 °C (dec.)
10,"O=C1CC(c2ccncc2)=Nc2ccc(C#Cc3ccccc3)cc2N1 [Example 12, 8-Phenylethynyl-4-pyridin-4-yl-1,3-dihydro-benzo[b][1,4]diazepin-2-one]",198 to 200 °C (dec.)
11,"N#Cc1cccc(C2=Nc3ccc(-c4ccoc4)cc3NC(=O)C2)c1 [Example 14, 3-(7-Furan-3-yl-4-oxo-4,5-dihydro-3H-benzo[b][1,4]diazepin-2-yl)-benzonitrile]",228 to 233 °C (dec.)
12,"N#Cc1cccc(C2=Nc3ccc(-c4ccc(Cl)cc4)cc3NC(=O)C2)c1 [Example 15, 3-[7-(4-Chloro-phenyl)-4-oxo-4,5-dihydro-3H-benzo[b][1,4]diazepin-2-yl]-benzonitrile]",244 to 250 °C (dec.)
13,"N#Cc1cccc(C2=Nc3ccc(C#Cc4ccc(Cl)cc4)cc3NC(=O)C2)c1 [Example 16, 3-[7-(4-Chloro-phenylethynyl)-4-oxo-4,5-dihydro-3H-benzo[b][1,4]diazepin-2-yl]-benzonitrile]",237 to 240 °C (dec.)
14,"O=C1CC(c2cccc(Cl)c2)=Nc2ccc(-c3ccccc3)cc2N1 [Example 19, 4-(3-Chloro-phenyl)-8-phenyl-1,3-dihydro-benzo[b][1,4]diazepin-2-one]",208 °C (dec.)
15,"N#Cc1cccc(C2=Nc3ccc(-c4cccc5ccccc45)cc3NC(=O)C2)c1 [Example 20, 3-(7-Naphthalen-1-yl-4-oxo-4,5-dihydro-3H-benzo[b][1,4]diazepin-2-yl)-benzonitrile]",240 to 245 °C (dec.)
16,"N#Cc1cccc(C2=Nc3ccc(C#Cc4nccs4)cc3NC(=O)C2)c1 [Example 21, 3-(4-Oxo-7-thiazol-2-ylethynyl-4,5-dihydro-3H-benzo[b][1,4]diazepin-2-yl)-benzonitrile]",230 °C (dec.)
17,"Cc1ccc(-c2ccc3c(c2)NC(=O)CC(c2cccc(C#N)c2)=N3)cc1 [Example 22, 3-(4-Oxo-7-p-tolyl-4,5-dihydro-3H-benzo[b][1,4]diazepin-2-yl)-benzonitrile]",242 to 245 °C (dec.)
18,"O=C1CC(c2sccc2Cl)=Nc2ccc(-c3ccccn3)cc2N1 [Example 23, 4-(3-Chloro-thiophen-2-yl)-8-pyridin-2-yl-1,3-dihydro-benzo[b][1,4]diazepin-2-one]",220 to 225 °C (dec.)
19,"N#Cc1cccc(C2=Nc3ccc(-c4cccs4)cc3NC(=O)C2)c1 [Example 24, 3-(4-Oxo-7-thiophen-2-yl-4,5-dihydro-3H-benzo[b][1,4]diazepin-2-yl)-benzonitrile]",> 250 °C (dec.)
20,"O=C1CC(c2cccs2)=Nc2ccc(I)cc2N1 [Example 25, 8-Iodo-4-thiophen-2-yl-1,3-dihydro-benzo[b][1,4]diazepin-2-one]",> 260 °C
21,"N#Cc1cccc(C2=Nc3ccc(C#Cc4ccccn4)cc3NC(=O)C2)c1 [Example 26, 3-(4-Oxo-7-pyridin-2-ylethynyl-4,5-dihydro-3H-benzo[b][1,4]diazepin-2-yl)-benzonitrile]",229 to 231 °C (dec.)
22,"N#Cc1cccc(C2=Nc3ccc(-c4ccccn4)cc3NC(=O)C2)c1 [Example 28, 3-(4-Oxo-7-pyridin-2-yl-4,5-dihydro-3H-benzo [b][1,4]diazepin-2-yl)-benzonitrile]",243 to 244 °C (dec.)
23,"O=C1CC(c2ccsc2)=Nc2ccc(-c3ccccc3)cc2N1 [Example 29, 8-Phenyl-4-thiophen-3-yl-1,3-dihydro-benzo [b][1,4]diazepin-2-one]",233 °C (dec.)
24,"Cc1cccc(-c2ccc3c(c2)NC(=O)CC(c2cccc(C#N)c2)=N3)c1 [Example 30, 3-(4-Oxo-7-m-tolyl-4,5-dihydro-3H-benzo [b][1,4]diazepin-2-yl)-benzonitrile]",248 to 251 °C (dec.)
25,"N#Cc1cccc(C2=Nc3ccc(-c4ccc(Cl)c(Cl)c4)cc3NC(=O)C2)c1 [Example 31, 3-[7-(3,4-Dichloro-phenyl)-4-oxo-4,5-dihydro-3H-benzo [b][1,4]diazepin-2-yl]-benzonitrile]",252 to 255 °C (dec.)

# The next lines start with the values.
row,melting point,SMILES
1,210 °C (dec.),"O=C1CC(c2cccc(C(F)(F)F)c2)=Nc2ccc(-c3ccccc3)cc2N1 [Example 32, 8-Phenyl-4-(3-trifluoromethyl-phenyl)-1,3-dihydro-benzo [b][1,4]diazepin-2-one]"
2,240 to 244 °C (dec.),"N#Cc1cccc(C2=Nc3ccc(-c4ccccc4Cl)cc3NC(=O)C2)c1 [Example 33, 3-[7-(2-Chloro-phenyl)-4-oxo-4,5-dihydro-3H-benzo [b][1,4]diazepin-2-yl]-benzonitrile]"
3,247 to 248 °C (dec.),"Cc1ccccc1-c1ccc2c(c1)NC(=O)CC(c1sccc1Cl)=N2 [Example 34, 4-(3-Chloro-thiophen-2-yl)-8-o-tolyl-1,3-dihydro-benzo [b][1,4]diazepin-2-one]"
4,199 to 202 °C (dec.),"O=C1CC(c2cccc(Cl)c2)=Nc2ccc(C(=O)c3ccccc3)cc2N1 [Example 35, 8-Benzoyl-4-(3-chloro-phenyl)-1,3-dihydro-benzo [b][1,4]diazepin-2-one]"
5,207 °C (dec.),"N#Cc1cccc(C2=Nc3ccc(C(=O)c4ccccc4)cc3NC(=O)C2)c1 [Example 36, 3-(7-Benzoyl-4-oxo-4,5-dihydro-3H-benzo [b][1,4]diazepin-2-yl)-benzonitrile]"
6,228 °C (dec.),"O=C1CC(c2sccc2Cl)=Nc2ccc(-c3ccccc3)cc2N1 [Example 38, 4-(3-Chloro-thiophen-2-yl)-8-phenyl-1,3-dihydro-benzo [b][1,4]diazepin-2-one]"
7,240 to 243 °C (dec.),"COc1cccc(-c2ccc3c(c2)NC(=O)CC(c2cccc(C#N)c2)=N3)c1 [Example 39, 3-[7-(3-Methoxy-phenyl)-4-oxo-4,5-dihydro-3H-benzo [b][1,4]diazepin-2-yl]-benzonitrile]"
8,210 to 214 °C (dec.),"N#Cc1cccc(C2=Nc3ccc(-c4cccnc4)cc3NC(=O)C2)c1 [Example 40, 3-(4-Oxo-7-pyridin-3-yl-4,5-dihydro-3H-benzo [b][1,4]diazepin-2-yl)-benzonitrile]"
9,> 250 °C,"O=C1CC(c2cccs2)=Nc2ccc(-c3ccc(=O)[nH]c3)cc2N1 [Example 41, 8-(6-Oxo-1,6-dihydro-pyridin-3-yl)-4-thiophen-2-yl-1,3-dihydro-benzo [b][1,4]diazepin-2-one]"
10,195 °C (dec.),"O=C1CC(c2cccc(C(F)(F)F)c2)=Nc2ccc(-c3ccc(OCc4ccccc4)nc3)cc2N1 [Example 42, 8-(6-Benzyloxy-pyridin-3-yl)-4-(3-trifluoromethyl-phenyl)-1,3-dihydro-benzo [b][1,4]diazepin-2-one]"
11,237 to 241 °C (dec.),"N#Cc1cccc(C2=Nc3ccc(-c4ccc(OC(F)(F)F)cc4)cc3NC(=O)C2)c1 [Example 43, 3-[4-Oxo-7-(4-trifluoromethoxy-phenyl)-4,5-dihydro-3H-benzo [b][1,4]diazepin-2-yl]-benzonitrile]"
12,> 200 °C (dec.),"N#Cc1cccc(C2=Nc3ccc(-c4ccncc4)cc3NC(=O)C2)c1 [Example 44, 3-(4-Oxo-7-pyridin-4-yl-4,5-dihydro-3H-benzo[b][1,4]diazepin-2-yl)-benzonitrile]"
13,92 to 95 °C (dec.),"N#Cc1cccc(C2=Nc3ccc(C4=CCN(S(=O)(=O)c5ccccc5)CC4)cc3NC(=O)C2)c1 [Example 45, 3-[7-(1-Benzenesulfonyl-1,2,3,6-tetrahydro-pyridin-4-yl)-4-oxo-4,5-dihydro-3H-benzo [b][1,4]diazepin-2-yl]-benzonitrile]"
14,211 to 213 °C (dec.),"CS(=O)(=O)N1CC=C(c2ccc3c(c2)NC(=O)CC(c2cccc(C#N)c2)=N3)CC1 [Example 46, 3-[7-(1-Methanesulfonyl-1,2,3,6-tetrahydro-pyridin-4-yl)-4-oxo-4,5-dihydro-3H-benzo [b][1,4]diazepin-2-yl]-benzonitrile]"
15,220 to 222 °C (dec.),"CC(=O)N1CC=C(c2ccc3c(c2)NC(=O)CC(c2cccc(C#N)c2)=N3)CC1 [Example 47, 3-[7-(1-Acetyl-1,2,3,6-tetrahydro-pyridin-4-yl)-4-oxo-4,5-dihydro-3H-benzo [b][1,4]diazepin-2-yl]-benzonitrile]"
